Test results as given in ChEMBL document CHEMBL1201862, “PubChem BioAssay data set” (2004).
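Grown in 96-well plates, cells were treated for 48 hours with each compound at five concentrations. Insufficient inhibition: endpoint recorded as highest concentration tested. The concentration for 50% growth inhibition is given as GI50.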 Activity calls are given as the source filed them. Rule as the data show it: active = GI50 up to about 1.1 µM and inactive = higher.

Experiments:
Assay in all cases: DTP human tumour cell line panel, 48 h
[1] = tested on: NCI-H226
[2] = tested on: TK-10
[3] = tested on: DMS-114
[4] = tested on: OVCAR-5
[5] = tested on: UACC-62
[6] = tested on: KM12
[7] = tested on: UO-31
[8] = tested on: SF-295
[9] = tested on: SK-MEL-5
[10] = tested on: NCI-H23
[11] = tested on: SNB-75
[12] = tested on: CCRF-CEM
[13] = tested on: OVCAR-3
[14] = tested on: OVCAR-8
[15] = tested on: NCI-H522
[16] = tested on: U-251
[17] = tested on: HOP-62
[18] = tested on: EKVX

Structure (SMILES): Cc1cc(O)nc(NNC(C#N)c2c(O)ccc3ccccc23)n1 (stereo not given)
- GI50 [1]: 4.14 µM (inactive)
- GI50 [2]: 9.06 µM (inactive)
- GI50 [3]: 2.87 µM (inactive)
- GI50 [4]: 16.7 µM (inactive)
- GI50 [5]: 2.87 µM (inactive)
- GI50 [6]: 4.29 µM (inactive)
- GI50 [7]: 1.73 µM (inactive)
- GI50 [8]: 4.74 µM (inactive)
- GI50 [9]: 2.99 µM (inactive)
- GI50 [10]: 3.56 µM (inactive)
- GI50 [11]: 15 µM (inactive)
- GI50 [12]: 1.73 µM (inactive)
- GI50 [13]: 1.78 µM (inactive)
- GI50 [14]: 3.1 µM (inactive)
- GI50 [15]: 8.89 µM (inactive)
- GI50 [16]: 2.91 µM (inactive)
- GI50 [17]: 6.5 µM (inactive)

Structure (SMILES): COc1ccc2c(=O)c([Se]c3coc4cc(OC)ccc4c3=O)coc2c1
- GI50 [18]: 46.8 µM (inactive)
- GI50 [1]: 52 µM (inactive)
- GI50 [2]: > 100 µM (inactive)
- GI50 [3]: 17.4 µM (inactive)
- GI50 [4]: > 100 µM (inactive)
- GI50 [5]: > 100 µM (inactive)
- GI50 [6]: 41.1 µM (inactive)
- GI50 [7]: 57.4 µM (inactive)
- GI50 [8]: 24.7 µM (inactive)
- GI50 [9]: > 100 µM (inactive)
- GI50 [10]: 34.9 µM (inactive)
- GI50 [11]: 20.8 µM (inactive)
- GI50 [12]: 46.7 µM (inactive)
- GI50 [13]: > 100 µM (inactive)
- GI50 [14]: 41.7 µM (inactive)
- GI50 [15]: > 100 µM (inactive)
- GI50 [16]: 42.8 µM (inactive)
- GI50 [17]: > 100 µM (inactive)

Structure (SMILES): COc1ccc(C(=C[N+](=O)[O-])c2ccc(OC)cc2)cc1
- GI50 [18]: 42.3 µM (inactive)
- GI50 [1]: 24.3 µM (inactive)
- GI50 [2]: 25.4 µM (inactive)
- GI50 [3]: 4.13 µM (inactive)
- GI50 [4]: 38.8 µM (inactive)
- GI50 [5]: 9.55 µM (inactive)
- GI50 [6]: 4.5 µM (inactive)
- GI50 [7]: 17.7 µM (inactive)
- GI50 [8]: 5.96 µM (inactive)
- GI50 [9]: 28.6 µM (inactive)
- GI50 [10]: 12.7 µM (inactive)
- GI50 [11]: 1.87 µM (inactive)
- GI50 [12]: 10.1 µM (inactive)
- GI50 [13]: 14.1 µM (inactive)
- GI50 [14]: 13 µM (inactive)
- GI50 [15]: 4.45 µM (inactive)
- GI50 [16]: 11.3 µM (inactive)
- GI50 [17]: 13.3 µM (inactive)

Structure (SMILES): O=C(/C=C\c1cccc2ccccc12)c1ccc(Br)cc1
- GI50 [18]: 24 µM (inactive)
- GI50 [1]: 50.7 µM (inactive)
- GI50 [2]: 51.3 µM (inactive)
- GI50 [3]: 15 µM (inactive)
- GI50 [4]: 18 µM (inactive)
- GI50 [5]: 15.2 µM (inactive)
- GI50 [6]: 15.1 µM (inactive)
- GI50 [7]: 19.1 µM (inactive)
- GI50 [8]: 22.4 µM (inactive)
- GI50 [9]: 19.7 µM (inactive)
- GI50 [10]: 34 µM (inactive)
- GI50 [11]: 21.7 µM (inactive)
- GI50 [12]: 20.9 µM (inactive)
- GI50 [13]: 18.4 µM (inactive)
- GI50 [14]: 17.5 µM (inactive)
- GI50 [15]: 21 µM (inactive)
- GI50 [16]: 16.1 µM (inactive)
- GI50 [17]: > 100 µM (inactive)

Structure (SMILES): CCOC(=O)[C@H]1Nc2ccc([N+](=O)[O-])cc2C2c3ccccc3CC21 (stereo not given in full)
- GI50 [1]: 19.1 µM (inactive)
- GI50 [2]: 27.4 µM (inactive)
- GI50 [3]: 15.9 µM (inactive)
- GI50 [4]: 16.6 µM (inactive)
- GI50 [5]: 12.2 µM (inactive)
- GI50 [6]: 29.9 µM (inactive)
- GI50 [7]: 15 µM (inactive)
- GI50 [8]: 11.2 µM (inactive)
- GI50 [9]: 13.1 µM (inactive)
- GI50 [10]: 15.3 µM (inactive)
- GI50 [11]: 26 µM (inactive)
- GI50 [12]: 0.337 µM (active)
- GI50 [13]: 9.84 µM (inactive)
- GI50 [14]: 21.4 µM (inactive)
- GI50 [15]: 6.7 µM (inactive)
- GI50 [16]: 16.1 µM (inactive)
- GI50 [17]: 18.9 µM (inactive)

Structure (SMILES): CCCCCCCCCCCCC(CC)CCCCC(=O)O (stereo not given)
- GI50 [18]: > 56.2 µM (inactive)
- GI50 [1]: > 100 µM (inactive)
- GI50 [2]: > 100 µM (inactive)
- GI50 [3]: > 100 µM (inactive)
- GI50 [4]: > 100 µM (inactive)
- GI50 [5]: > 100 µM (inactive)
- GI50 [6]: > 100 µM (inactive)
- GI50 [7]: > 100 µM (inactive)
- GI50 [8]: > 100 µM (inactive)
- GI50 [9]: > 100 µM (inactive)
- GI50 [10]: > 78.7 µM (inactive)
- GI50 [11]: > 100 µM (inactive)
- GI50 [12]: 22.6 µM (inactive)
- GI50 [13]: > 100 µM (inactive)
- GI50 [14]: > 100 µM (inactive)
- GI50 [15]: > 100 µM (inactive)
- GI50 [16]: > 47.6 µM (inactive)
- GI50 [17]: > 100 µM (inactive)

Structure (SMILES): O=C1CCN2CCC(=O)c3c2c(cc2ccccc32)N1
- GI50 [18]: > 100 µM (inactive)
- GI50 [1]: > 100 µM (inactive)
- GI50 [2]: > 100 µM (inactive)
- GI50 [3]: > 100 µM (inactive)
- GI50 [4]: > 100 µM (inactive)
- GI50 [5]: > 100 µM (inactive)
- GI50 [6]: > 100 µM (inactive)
- GI50 [7]: 75.5 µM (inactive)
- GI50 [8]: > 100 µM (inactive)
- GI50 [9]: > 100 µM (inactive)
- GI50 [11]: > 100 µM (inactive)
- GI50 [12]: > 100 µM (inactive)
- GI50 [13]: > 100 µM (inactive)
- GI50 [14]: > 100 µM (inactive)
- GI50 [15]: > 100 µM (inactive)
- GI50 [16]: > 100 µM (inactive)
- GI50 [17]: > 100 µM (inactive)

Structure (SMILES): CC1=C(SC#N)S(=O)(=O)N(c2ccccc2)C(C)=C1SC#N
- GI50 [1]: 36.2 µM (inactive)
- GI50 [2]: > 100 µM (inactive)
- GI50 [3]: 5.92 µM (inactive)
- GI50 [4]: 39.4 µM (inactive)
- GI50 [5]: 30.1 µM (inactive)
- GI50 [6]: 60.4 µM (inactive)
- GI50 [7]: 24.4 µM (inactive)
- GI50 [8]: 22.6 µM (inactive)
- GI50 [9]: 42 µM (inactive)
- GI50 [10]: 48.2 µM (inactive)
- GI50 [11]: 27 µM (inactive)
- GI50 [12]: 17.5 µM (inactive)
- GI50 [13]: > 10 µM (inactive)
- GI50 [14]: 15.1 µM (inactive)
- GI50 [15]: 18 µM (inactive)
- GI50 [16]: 16.9 µM (inactive)
- GI50 [17]: > 10 µM (inactive)

Structure (SMILES): Cc1cc2occ(C)c(=O)c2c2c1OC(C)(C)S2
- GI50 [18]: > 100 µM (inactive)
- GI50 [1]: > 100 µM (inactive)
- GI50 [2]: > 100 µM (inactive)
- GI50 [3]: > 100 µM (inactive)
- GI50 [4]: > 100 µM (inactive)
- GI50 [5]: > 100 µM (inactive)
- GI50 [6]: > 100 µM (inactive)
- GI50 [7]: > 100 µM (inactive)
- GI50 [8]: > 100 µM (inactive)
- GI50 [9]: > 100 µM (inactive)
- GI50 [10]: > 100 µM (inactive)
- GI50 [11]: 88.5 µM (inactive)
- GI50 [12]: 51.1 µM (inactive)
- GI50 [13]: > 100 µM (inactive)
- GI50 [14]: > 100 µM (inactive)
- GI50 [15]: 47.6 µM (inactive)
- GI50 [16]: > 100 µM (inactive)
- GI50 [17]: > 100 µM (inactive)

Structure (SMILES): COc1cc2c3c(c1OC)-c1ccccc1C(C(OC(C)=O)c1ccccc1)C3N(C)CC2 (stereo not given)
- GI50 [18]: > 100 µM (inactive)
- GI50 [1]: 47.2 µM (inactive)
- GI50 [2]: > 100 µM (inactive)
- GI50 [3]: 28.4 µM (inactive)
- GI50 [4]: > 100 µM (inactive)
- GI50 [5]: 34 µM (inactive)
- GI50 [6]: 25.7 µM (inactive)
- GI50 [7]: 57.1 µM (inactive)
- GI50 [8]: > 100 µM (inactive)
- GI50 [9]: 18.1 µM (inactive)
- GI50 [10]: 38.7 µM (inactive)
- GI50 [11]: 31.9 µM (inactive)
- GI50 [12]: 25.1 µM (inactive)
- GI50 [13]: 43.4 µM (inactive)
- GI50 [14]: 34.8 µM (inactive)
- GI50 [15]: 49.2 µM (inactive)
- GI50 [16]: 34 µM (inactive)

Structure (SMILES): CCCCCCCCCCCC(=O)OCC1OC(OC)C(NC(=O)N(CCCl)N=O)C(O)C1O (stereo not given)
- GI50 [1]: 23 µM (inactive)
- GI50 [2]: 25.7 µM (inactive)
- GI50 [3]: 16.6 µM (inactive)
- GI50 [4]: 20.4 µM (inactive)
- GI50 [5]: 1.33 µM (inactive)
- GI50 [6]: 17.3 µM (inactive)
- GI50 [7]: 16.7 µM (inactive)
- GI50 [8]: 8.24 µM (inactive)
- GI50 [9]: 13.1 µM (inactive)
- GI50 [10]: > 10 µM (inactive)
- GI50 [11]: 14.1 µM (inactive)
- GI50 [12]: 0.516 µM (active)
- GI50 [13]: 16.3 µM (inactive)
- GI50 [14]: 19.3 µM (inactive)
- GI50 [15]: 10.3 µM (inactive)
- GI50 [16]: 7.06 µM (inactive)
- GI50 [17]: 18.7 µM (inactive)

Structure (SMILES): COc1cc2c(c(OC)c1OC)-c1ccc(SC)c(=O)cc1[C@@H](NCc1cccc(C#N)c1)CC2
- GI50 [18]: 0.0973 µM (active)
- GI50 [1]: 0.0226 µM (active)
- GI50 [2]: 0.0841 µM (active)
- GI50 [3]: 0.0153 µM (active)
- GI50 [4]: 0.037 µM (active)
- GI50 [5]: 0.00668 µM (active)
- GI50 [6]: 0.00528 µM (active)
- GI50 [7]: 0.308 µM (active)
- GI50 [8]: 0.0207 µM (active)
- GI50 [9]: 0.00693 µM (active)
- GI50 [10]: 0.0179 µM (active)
- GI50 [11]: 0.00516 µM (active)
- GI50 [12]: 0.0229 µM (active)
- GI50 [13]: 0.0168 µM (active)
- GI50 [14]: 0.0222 µM (active)
- GI50 [15]: 0.0142 µM (active)
- GI50 [16]: 0.0178 µM (active)
- GI50 [17]: 0.0334 µM (active)
